Legend:
[1] = target: T1, messenger ribonucleic acid polymerase (Mus musculus, UniProt P08775+Q8CFI7); assay: In vitro messenger ribonucleic acid polymerase activity; assay type: biochemical; conditions: 0.25 to 1.0 mM
T1 construct: enzymes isolated from nuclei; endogenous in cells; host or cells: Ehrlich ascites tumor cell nuclei, ammonium sulfate fraction
Experimental: (§1) CF1 male mice (~30 g) were implanted with 2×10^6 Ehrlich ascites tumor cells, intraperitoneally on Day 0. Compound I was suspended by homogenation in 0.05% polysorbate.80-water and administered intraperitoneally at 10 and 20 mg/kg for 9 days to determine its effectiveness for inhibition of tumor growth. Mice were sacrificed on Day 10, and the ascites fluid was collected from the peritoneal cavity. The volume and ascrit (packed cell volume) were determined for each animal and the percent inhibition of tumor growth was calculated. For the metabolic studies, mice were treated on Days 8 and 9 with 10 mg/kg of Compound I, intraperitoneally. The animal was sacrificed on Day 10 and the ascites fluid harvested. The in vitro metabolic studies were performed at 0.25, 0.50 and 1 mmol final concentration of Compound I.
In vitro and in vivo nuclear deoxyribonucleic acid polymerase activity was determined on isolated Ehrlich ascites cell nuclei. The incubation was that described by Sawada et al [Can. Res., 34, 3341 (1974)] except that [methyl-^3 H] deoxythymidine triphosphate (82.4 Ci/mmol) was used. The acid insoluble nucleic acid was collected on GF/F filters and counted. Nuclear ribonucleic acid polymerase activities were determined on enzymes isolated from nuclei. […] The acid insoluble ribonucleic acid was collected on nitrocellulose filters and counted.

dihydrofolate reductase = target: T2, dihydrofolate reductase (Mus musculus, UniProt P00375); assay: In vivo dihydrofolate reductase activity
T2 sequence (P00375 1-187): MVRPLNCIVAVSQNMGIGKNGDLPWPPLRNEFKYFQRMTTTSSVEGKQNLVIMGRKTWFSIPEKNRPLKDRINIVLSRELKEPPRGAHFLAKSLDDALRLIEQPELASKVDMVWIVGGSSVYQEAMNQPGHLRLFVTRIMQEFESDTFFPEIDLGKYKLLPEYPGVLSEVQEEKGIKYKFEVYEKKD
Experimental: as §1, with “The animal was sacrificed on Day 10 and the ascites fluid harvested. The in vitro metabolic studies were performed at 0.25, 0.50 and 1 mmol final concentration of Compound I.” left out
Carbamyl phosphate synthetase activity was determined using the reaction medium of Kalman et al [Am. […] Citrulline formed from ornithine was measured at 490 nm by the method of Archibald [J. Biol. Chem., 156, 121 (1944)]. […] The ^14 CO2 generated in 15 min was trapped in 1M KOH and counted. Thymidylate synthetase activity was determined using a post-mitochondrial supernatant (9000 g×10 min) and 5 μCi of 5-^3 H-deoxyuridine monophosphate (14 Ci/mmol) according to the method of Kampf et al [ J. Med. Chem., 19, 903 (1976)]. ^14 C-Formate incorporation into purines was determined by the method of Spassova et al [Biochem. Pharmacol., 25, 923 (1976)] using 0.5 μCi of ^14 C-formic acid (52.0 mCi/mmol). […] The Rf value for xanthine monophosphate was scraped and counted. […]

Holtzman male rats = assay: Rat liver, small intestine and fecal lipid extraction; assay type: in vivo; conditions: 14 days 10 mg/kg/day orally
[2] = Relative solubilities in solvents; assay type: physicochemical
Description: Solvents in which ligand exchange reactions or initial formation of the complex may take place depend on the structure of the amine portion of the complex and on the ligand being introduced as is well understood by those skilled in the art. Typical solvents which may be used include water and polar organic solvents, such as methanol and pyridine. Typical of solubilities are the following relative solubilities of {Cu[(Me3 NBH2 COO)2.Me3 NBH2 CO2 H]}2 : […]

## {Cu[(CH3)3 N.BH2 CO2 ]2.(CH3)3 N.BH2 COOH} [Compound I]
[1]
  messenger ribonucleic acid polymerase inhibition: not inhibited
Dihydrofolate reductase
  Dihydrofolate reductase activity inhibited: 25%
Dihydrofolate reductase; 10 mg/kg/day I.P. on Days 8 and 9
  Dihydrofolate reductase activity: 75 ± 6 % Control
Holtzman male rats; rat Feces
  Cholesterol: 110 ± 6 Percent Control
  Mg of Lipid Extracted: 123 ± 5 Percent Control
  Neutral Lipids: 131 ± 7 Percent Control
  Phospholipids: 183 ± 8 Percent Control
  Protein: 68 ± 6 Percent Control
  Triglyceride: 133 ± 7 Percent Control
Holtzman male rats; rat Liver
  Cholesterol: 65 ± 6 Percent Control
  Mg of Lipid Extracted: 51 ± 5 Percent Control
  Neutral Lipids: 93 ± 9 Percent Control
  Phospholipids: 93 ± 9 Percent Control
  Protein: 99 ± 7 Percent Control
  Triglyceride: 76 ± 7 Percent Control
Holtzman male rats; rat Small Intestine
  Cholesterol: 47 ± 6 Percent Control
  Mg of Lipid Extracted: 43 ± 5 Percent Control
  Neutral Lipids: 17 ± 3 Percent Control
  Phospholipids: 46 ± 5 Percent Control
  Protein: 111 ± 8 Percent Control
  Triglyceride: 40 ± 4 Percent Control
[2]; 2-Chloro-2-methylpropane
  Solubility: insoluble
[2]; Acetic Acid
  Solubility: moderately soluble
[2]; Acetone
  Solubility: insoluble
[2]; Acetonitrile
  Solubility: moderately soluble
[2]; Benzene
  Solubility: insoluble
[2]; Chloroform
  Solubility: insoluble
[2]; Diethyl ether
  Solubility: insoluble
[2]; Dimethyl sulfoxide
  Solubility: moderately soluble
[2]; Ethanol
  Solubility: very slightly soluble
[2]; Ethyl Acetate
  Solubility: insoluble
[2]; Isopropanol
  Solubility: insoluble
[2]; Isopropyl ether
  Solubility: insoluble
[2]; Methanol
  Solubility: moderately soluble
[2]; Methylene chloride
  Solubility: slightly soluble
[2]; Pentane
  Solubility: insoluble
[2]; Pyridine
  Solubility: moderately soluble
[2]; Tetrahydrofuran
  Solubility: insoluble
[2]; Water
  Solubility: very soluble
